Reference: the supplement of paper PMC10307832

Columns and labels:
Assay in all cases: relative viability (nuclei count vs DMSO), 5 days (fraction); higher = more cells survive
AT-7519 + Phenformin = compound: O=C(NC1CCNCC1)c1n[nH]cc1NC(=O)c1c(Cl)cccc1Cl [AT-7519] + N=C(N)NC(=N)NCCc1ccccc1 [Phenformin] (partner 250 µM)
Outline: (§1)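 Lung cancer cell lines in 1536-well plates were dosed by pin tool the day after seeding, either with one drug alone or with a fixed anchor-drug dose plus five library-drug doses (not always all listed) in √10 steps. After 5 days, cells were fixed and their nuclei stained in one step (final 0.05% Triton X-100, 1% formaldehyde, 1 ug/ml Hoechst), then counted on 4× images. Relative viability is the nuclei count in treated wells divided by that in vehicle wells. Values are medians of duplicate plates.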

[1] = compound: C1=CC2=C(C=C(C(=C2N=C1)O)N=NC3=CC4=C(C=C3)C=C(C=C4)S(=O)(=O)O)S(=O)(=O)O + CC(C)C[C@H](NC(=O)[C@H](Cc1ccccc1)NC(=O)c1cnccn1)B(O)O [Bortezomib] (partner 0.002 µM)
Outline: as §1

[2] = compound: C1=CC2=C(C=C(C(=C2N=C1)O)N=NC3=CC4=C(C=C3)C=C(C=C4)S(=O)(=O)O)S(=O)(=O)O + Nc1nc2[nH]cc(CCc3ccc(C(=O)N[C@@H](CCC(=O)O)C(=O)O)cc3)c2c(=O)[nH]1 [Pemetrexed] (partner 0.2 µM)
Outline: as §1

[3] = compound: C1=CC2=C(C=C(C(=C2N=C1)O)N=NC3=CC4=C(C=C3)C=C(C=C4)S(=O)(=O)O)S(=O)(=O)O + CC1(C)CCC(c2ccc(Cl)cc2)=C(CN2CCN(c3ccc(C(=O)NS(=O)(=O)c4ccc(N[C@H](CCN5CCOCC5)CSc5ccccc5)c(S(=O)(=O)C(F)(F)F)c4)cc3)CC2)C1 [Navitoclax] (partner 0.5 µM)
Outline: as §1

Row | Cell Line | relative viability (AT-7519 + Phenformin; first compound 0.01 µM) | relative viability (AT-7519 + Phenformin; first compound 0.03162 µM) | relative viability (AT-7519 + Phenformin; first compound 0.3162 µM) | relative viability (AT-7519 + Phenformin; first compound 1 µM) | relative viability ([1]; first compound 0.08 µM) | relative viability ([1]; first compound 0.253 µM) | relative viability ([1]; first compound 0.8 µM) | relative viability ([1]; first compound 2.53 µM) | relative viability ([1]; first compound 8 µM) | relative viability ([2]; first compound 0.08 µM) | relative viability ([2]; first compound 0.253 µM) | relative viability ([2]; first compound 0.8 µM) | relative viability ([2]; first compound 2.53 µM) | relative viability ([2]; first compound 8 µM) | relative viability ([3]; first compound 0.08 µM) | relative viability ([3]; first compound 0.253 µM) | relative viability ([3]; first compound 0.8 µM) | relative viability ([3]; first compound 2.53 µM) | relative viability ([3]; first compound 8 µM)
1 | HCC-78 | 0.712 | 0.604 | 0.596 | 0.662 | 0.513 | 0.469 | 0.475 | 0.417 | 0.526 | 0.915 | 0.922 | 0.902 | 0.887 | 0.908 | 0.776 | 0.667 | 0.879 | 0.826 | 0.757
2 | HCC-366 | 0.624 | 0.616 | 0.613 | 0.509 | 1.03 | 1.03 | 1.02 | 1.13 | 0.985 | 0.162 | 0.14 | 0.157 | 0.145 | 0.163 | 1.07 | 0.839 | 0.977 | 1.07 | 1.07
3 | HCC-827 | 0.457 | 0.437 | 0.341 | 0.246 | 1.06 | 0.95 | 0.948 | 1.02 | 1.03 | 0.269 | 0.21 | 0.296 | 0.224 | 0.246 | 1 | 0.977 | 0.995 | 1.03 | 1
4 | HOP-62 | 0.706 | 0.655 | 0.512 | 0.679 | 0.714 | 0.558 | 0.851 | 0.725 | 0.637 | 0.263 | 0.279 | 0.312 | 0.349 | 0.325 | 1.1 | 1.03 | 1.12 | 1.07 | 1.1
5 | IA-LM |  |  |  |  | 0.93 | 0.843 | 0.803 | 0.819 | 0.923 |  |  |  |  |  | 0.769 | 0.885 | 0.819 | 0.75 | 0.694
6 | LC-2-ad | 0.522 | 0.573 | 0.498 | 0.413 | 1.12 | 1.04 | 0.976 | 1.08 | 0.902 | 0.28 | 0.278 | 0.265 | 0.261 | 0.274 | 0.516 | 0.517 | 0.507 | 0.402 | 0.521
7 | LCLC-103H | 0.32 | 0.296 | 0.313 | 0.33 | 1.14 | 1.14 | 1.12 | 1.15 | 1.02 | 0.505 | 0.459 | 0.493 | 0.439 | 0.453 |  |  |  |  | 
8 | LK-2 | 0.278 | 0.482 |  | 0.307 |  |  |  |  |  | 0.312 | 0.224 | 0.212 | 0.269 | 0.283 | 1.01 | 0.797 | 0.888 | 0.79 | 0.687
9 | NCI-H358 | 0.342 | 0.313 | 0.205 | 0.087 |  |  |  |  |  | 0.159 | 0.16 | 0.162 | 0.163 | 0.171 |  |  |  |  | 
10 | NCI-H522 |  | 0.681 | 0.662 | 0.675 |  |  |  |  |  | 0.949 | 1.03 | 1.04 | 0.971 | 1.09 |  |  |  |  | 
11 | NCI-H650 | 0.492 | 0.465 | 0.49 | 0.421 | 0.782 | 0.748 | 0.94 | 0.758 | 0.614 | 1.04 | 0.922 | 0.956 | 0.936 | 0.791 |  |  |  |  | 
